In US20250129146A1, “COMBINED CANCER THERAPY WITH AN EPITHELIAL CELL ADHESION MOLECULE (EPCAM) INHIBITOR AND A WNT INHIBITOR” (ACADEMIA SINICA, priority 2021, published 2025):
Entries after “also recorded” stand apart in the source; their conditions may differ.

Columns and labels:
[1] = system: colon cancer cells (SW620, HCT116); test: Annexin-V/PI apoptosis assay; type: cell-based, human; settings: SW620 and HCT116 cells; 20 μg/mL EpAb2-6, LGK974 or the combination for 24 hrs
Experimental: Cells were seeded in 24-well plate ([…] cells per well) overnight and then treated with 20 μg/mL mEpAb2-6, hEpAb2-6 or MT201, or […] LGK974 (MedChemExpress) or the combination for 24 hrs. Cell pellets were collected, and an apoptosis assay was performed using an Annexin-V/PI apoptosis kit (BD Biosciences). Results were read by flow cytometry analysis percentage apoptotic cells was calculated.

[2] = system: active β-Catenin; test: Nuclear translocation of β-Catenin (immunofluorescence staining; cell fractionation with western blot); type: cell-based, human; settings: wild-type HCT116 cells; 20 μg/mL EpAb2-6 for 6 h, 400 ng/mL LGK974 for 9 h or combination
Experimental: Cells (1×10^6) were seeded overnight and further allowed to grow in serum free conditions. Then cells were further treated with 20 μg/mL mEpAb2-6 or hEpAb2-6 or MT201 for 6 h or with 400 ng/mL LGK974 (MedChemExpress) for 9 h or combination as indicated. Samples were fractioned into cytosol and nuclear extracts using nuclear/cytosol fractionation kit (Biovision) according to the manufacturer's protocol. The fractions were then subjected to western blot analysis.
(§1) For western blotting, cells were extracted using radioimmunoprecipitation assay (RIPA) buffer [(0.01 M sodium phosphate, pH 7.2), 150 mM NaCl, 2 mM EDTA, 50 mM NaF, 1% Nonidet P-40, 1% sodium deoxycholate, and 0.1% SDS)] containing phosphatase inhibitor (Roche) and protease inhibitor (Roche) cocktail. Equal amounts of protein were separated by SDS-PAGE and then transferred to PVDF membranes. The membranes were blocked with 3% BSA in TBST (Blocking solution) and incubated with necessary primary antibodies in the blocking solution overnight at 4° C. Membranes were then incubated with HRP-conjugated secondary antibodies in the blocking solution for 1 h at room temperature, and protein expression were detected. Antibodies used: anti-α-tubulin (Sigma), anti-EpCAM (abeam), anti-Active β-Catenin (Millipore), anti-total β-Catenin (abeam), anti-Frizzled 6 (CST), anti-Frizzled 7 (Santa Cruz Biotech), anti-LRP5 (abcam), anti-Phospho-LRP5 (abcam), anti-Phospho-LRP6 (CST), anti-LRP6 (CST) and anti-EpEX antibody EpAb3-5 (Produced in house), anti-ADAM17 (abcam), anti-phopho-ADAM17 (abcam), anti-Presenilin2 (abcam), anti-phospho-Presenilin2 (S327) (abcam), anti-phospho-Presenilin2 (S330) (abcam) and anti-Axin2 (CST).
Glass slides were used in 24-well plates and coated with 0.1% gelatin. Further, 3×10^4 cells were seeded in serum free medium overnight. Cells were treated with 20 μg/mL EpAb2-6 for 6 h, or 400 ng/mL LGK974 (MedChemExpress) for 9 h or the combination. Cells were washed using ice-cold PBS and fixed with 4% paraformaldehyde for 15 min at RT and washed with ice-cold PBS. Further, cells were permeabilized using 0.1% triton-X in PBS for 20 min and subsequently washed with PBS. Cells were blocked with 3% BSA in PBS for 1 h at RT. Next, cells were treated with primary antibody anti-Active β-Catenin (Millipore) overnight. Then, cells were washed and treated with secondary antibody in 3% BSA containing PBS along with DAPI for 1 h at RT. Samples were then washed in PBS five times and mounted for microscopy. Nuclear β-Catenin intensities were calculated using IMARIS (Oxford Instruments) software.

[3] = system: HCT116, HT29 and SW620 cells; test: Tumorsphere assay; type: cell-based, human
Experimental: Cells were seeded in ultra-low adherent 6-well plates (5×10^4 cells per well) or 24-well plates (1×10^3 cells per well) and maintained in DMEM/F-12 supplemented with B27. Further, cells were treated with 20 μg/mL mEpAb2-6, hEpAb2-6 or MT201 (Produced in house), or 400 ng/mL LGK974 (MedChemExpress) or the combination, by direct addition to the culture medium. The entire culture medium, including the treatment component, was changed in every other day. Cells were cultured for 10 days, and on 10th day, spheres were counted and photographed under the microscope.

[4] = system: LRP5/6; test: Phosphorylation of LRP5/6 (western blot); type: cell-based, human; settings: SW620 cells; LGK974, EpAb2-6 or combined treatment
Experimental: as §1

[5] = system: HCT116 cells; test: Orthotopic animal model of human CRC (HCT116 cells with luciferase in cecum wall); type: in vivo, NOD/SCID mice
Experimental: (§2) All animal experiments were approved and performed according to the regulations from the IACUC at Academia Sinica. HCT116 cells (1×10^6) were injected via tail vein for the metastatic model. Otherwise, 2×10^5 HCT116 cells with luciferase were surgically transplanted into the cecum wall for the orthotopic model. Male NOD/SCID mice, approximately 6 to 8 weeks old, were used for animal experiments (n=5 and n=6 for each treatment group in metastatic and orthotopic models respectively). At 72-h post-injection/transplantation, mice were randomly distributed into four different treatment groups. For the treatments, animals were injected with 20 mg/kg IgG or EpAb2-6 via tail vein twice a week for four weeks, or fed by oral gavage with either vehicle [0.5% methylcellulose (Sigma-Aldrich) and 0.5% Tween80 (Sigma-Aldrich)] or 5 mg/kg LGK974 (MedChemExpress) formulated with the vehicle on alternating days for four weeks, or animals were treated with the combination of both inhibitor and antibody. For the metastatic model, survival was the main endpoint. For the orthotopic model, tumor progression was monitor using bioluminescence imaging. To image the tumors, intraperitoneal injection of D-Luciferin (GOLD BIO) was performed, and images were taken 10 min post-injection.

[6] = system: HT29 and SW620 cells; test: Colony formation assay; type: cell-based, human
Experimental: Cells were seeded in 12-well plate (5×10^3 cells per well) and treated with 20 µg/mL mEpAb2-6, hEpAb2-6 or MT201 (Produced in house) or 400 ng/mL LGK974 (MedChemExpress) or combination as indicated in which case the elements were directly added to the culture medium. The medium along with the treatment component were changed in every alternating day and the cells were allowed to grow for 10 days. On the tenth day, cells were washed and fixed with 4% paraformaldehyde and further stained with 1% crystal violet for 30 min. Colonies were washed 3 times with PBS, and images were taken. Furthermore, to measure colony density, the wells were incubated with 0.5% SDS shaking for 2 h at RT. The supernatants were collected, and the absorbance of the solution was taken at 570 nm using a microplate reader.

[7] = system: HCT116 cells; test: Metastatic animal model of human CRC (HCT116 cells via tail vein); type: in vivo, NOD/SCID mice
Experimental: as §2

[8] = system: Oct4, Sox2 and c-Myc; test: Stemness (pluripotency) factor expression (western blot, qPCR); type: cell-based, human; settings: HT29 cells; LGK974, EpAb2-6 or combined treatment
Experimental: as §1
(§3) Total RNA was extracted using TRI reagent and 5 μg of the total RNA was further reverse-transcribed using oligo (dT) primer with reverse transcriptase. Quantitative real time RT-PCR (qPCR) was performed on cDNA using the Light Cycler 480 SYBR Green-I Master kit and the LightCycler480 System. The gene expression levels of each sample were normalized to the expression levels of glyceraldehyde 3-phosphate dehydrogenase (GAPDH) or β-actin.

[9] = system: Wnt receptors (FZD6/7, LRP5/6); test: Wnt receptor protein and mRNA expression (western blot, qPCR); type: cell-based, human; settings: HCT116 cells; EpAb2-6, LGK974 or combination
Experimental: as §1, §3

[10] = dose of 5 mg/kg body weight; cited from earlier work
[11] = EpCAM-knockout cells, exogenous EpEX, LGK974 or both

SMILES: Cc1cc(-c2ncc(CC(=O)Nc3ccc(-c4cnccn4)cn3)cc2C)ccn1 [LGK974, 2-(2′,3-dimethyl-[2,4′-bipyridin]-5-yl)-N-(5-(pyrazin-2-yl)pyridin-2-yl)acetamide, reference compound]
- induction of apoptosis [1]: did not observe significant effects
- nuclear β-Catenin [2]: decreased nuclear D3-Catenin but did not completely clear the protein from the nucleus
- tumorsphere formation [3, 11]: complete loss of ability to form spheres or colonies
- tumorsphere formation ([3]; HCT116 and HT29 cells, 20 μg/mL EpAb2-6, 400 ng/mL LGK974 or combination, 10 days): decreased
- cancer stemness properties ([3]; summary statement, CRC cells, tumorsphere and colony formation): partially attenuate cancer sternness properties
- LRP5/6 phosphorylation [4]: could decrease LRP5/6 phosphorylation
- body weight after cessation of treatment ([5]; orthotopic model): continued to lose body weight
- median / overall survival ([5]; orthotopic model): low median survival
- body weight during the treatment period ([5]; orthotopic model, 5 mg/kg LGK974): decreased during the treatment period
- tumor progression (bioluminescence) ([5]; orthotopic model, 20 mg/kg EpAb2-6 via tail vein twice a week, 5 mg/kg LGK974 oral gavage on alternating days, four weeks): developed significant tumors
- tumor (cancer) progression in animal models ([5]; summary statement, metastatic and orthotopic animal models of human CRC): did not observe significant effects
- colony formation [6, 11]: complete loss of ability to form spheres or colonies
- colony formation ([6]; HT29 cells, 20 µg/mL EpAb2-6, 400 ng/mL LGK974 or combination, 10 days): decreased
- animal survival ([7]; 20 mg/kg EpAb2-6 via tail vein twice a week, 5 mg/kg LGK974 oral gavage on alternating days, four weeks): decreased overall survival
- distant metastases ([7]; autopsies): distinct metastases; also recorded: found to have distant metastases
- expression of pluripotency factors [8]: decreased pluripotency factor expressions
- expression of Wnt receptors [9]: partially decrease
- toxicity [10]: non-toxic
